Results reported in patent US20230312582A1, “Salts Of Nitrogen-Containing Heterocyclic Compound, And Solid Forms Of Salts, Pharmaceutical Composition And Use Thereof” (Wuhan Humanwell Innovative Drug Research And Development …, priority 2020, published 2023).
In brackets after ≈: the same amount, converted by molar mass. Where a name gives a salt, the structure may show the parent alone. Read-outs that look alike come from different tables or passages of the source. One block for each compound: values may come before it.

Tests used:
[1] = Hygroscopicity by dynamic vapor sorption (DVS); type: physicochemical; details: for After DVS test Whether the crystal form is changed: 0% RH to 95% RH to 0% RH; for After DVS test Whether the crystal form is changed / Hygroscopicity / Vapor sorption (25° C./80% RH): 25° C.; for Hygroscopicity / Vapor sorption (25° C./80% RH): DVS; for Risk evaluation: hygroscopicity evaluation; for DVS curve vapor sorption: at 0% RH to 80% RH
Method: Dynamic vapor sorption (DVS) curves are acquired on a DVS Intrinsic in SMS (Surface Measurement System). The relative humidity at 25° C. is corrected with the deliquescence points of LiCl, Mg(NO3)2 and KCl.
Hygroscopicity of the crystal form A of hydrochloride, the crystal form A of fumarate, the crystal form A of benzenesulfonate and the free base crystal form A prepared repeatedly was evaluated using a dynamic vapor sorption (DVS) instrument. Starting at 0% relative humidity (0% RH), the test acquired the percentage change of mass of the sample when humidity changed (0% RH to 95% RH to 0% RH) at a constant temperature of 25° C.

[2] = Polarizing microscope (PLM) image, particle size; type: physicochemical; details: room temperature
Excerpt: The polarizing microscope data are acquired by an Axio Lab. A1 upright microscope at room temperature.

[3] = Dynamic solubility in water and three biological vehicles; type: physicochemical; details: for Crystal form change: XRPD of solid; for pH: filtrate
Method: The dynamic solubility of the crystal form A of hydrochloride, the crystal form A of fumarate, the crystal form A of benzenesulfonate and the free base crystal form A prepared repeatedly was evaluated in water and three biological vehicles. […] After centrifugation of the samples at each time point (0.45 μm PTFE filter head), the filtrate was determined for HPLC concentration and pH, and the centrifuged solid samples were tested for XRPD.

Solid stability, 1 week = type: physicochemical; details: for Purity (area %): HPLC; for Crystal form change: XRPD
Method: The crystal form A of hydrochloride, the crystal form A of fumarate, the crystal form A of benzenesulfonate and the free base crystal form A prepared repeatedly were placed at 25° C./60% RH and 40° C./75% RH for 1 week, and then the physical and chemical stability of the samples were tested by XRPD and HPLC. […] No significant purity decrease or crystal form transformation occurred in any of the other samples after being placed under 2 conditions for 1 week.

[4] = Stability assay of human liver microsome; type: in vitro ADME; details: human liver microsomes, NADPH, 37° C.
Method: The stability of human liver microsome was detected by in vitro co-incubation of compounds with human liver microsomes. Test compounds were first prepared as 10 mM stock solutions in DMSO solvent, followed by dilution of the compounds to 0.5 mM using acetonitrile. […] The deep-well plate was taken, […] was added to each well, then 15 μL of pre-warmed 6 mM NADPH solution was added to the plate to start the reaction, and the plate was incubated at 37° C. […] The supernatant was taken after centrifugation, and added with purified water at a ratio of 1:1 for LC-MS/MS detection to obtain the ratio of peak area of compound to peak area of internal standard at each time point. […] T1/2 was calculated using Excel.

[5] = Thermodynamic solubility assay; type: physicochemical; details: thermodynamic from solid
Method: The compounds were weighed out accurately, added to the prepared phosphate buffered saline at pH 7.4, FeSSIF solution at pH 5.8 and FaSSGF solution at pH 1.6 to prepare a solution at a concentration of 4 mg/mL, and the prepared solution was shaken at 1000 rpm for 1 h, and then incubated overnight at room temperature. The incubated solution was centrifuged at 12000 rpm for 10 min to remove undissolved particles, and the supernatant was transferred to a new centrifuge tube. After the supernatant was diluted properly, the supernatant was added with an acetonitrile solution containing an internal standard, and quantified by adopting a standard curve prepared by the same matrix.

[6] = In vivo pharmacokinetic assay in mice; details: male, ICR, mouse, in vivo
Method: (§1) In vivo pharmacokinetic assay in rats was performed, wherein the used rats were 6 male SD rats weighing 180-240 g and fasted overnight. […] Blood samples were centrifuged at 8000 rpm for 6 min at 4° C., and plasma was collected and stored at −20° C. The plasma at each time point was taken and added with 3-5 times of acetonitrile solution containing the internal standard for mixing, and the mixed solution was subjected to vortex mixing for 1 min, and centrifuging at 4° C. for 10 min at 13000 rpm. The supernatant was taken and added with 3 times of water for mixing. A proper amount of the mixed solution was taken for LC-MS/MS analysis. The major pharmacokinetic parameters were analyzed using WinNonlin 7.0 software and a non-compartmental model.
In vivo pharmacokinetic assay in mice was performed, wherein the used mice were 18 male ICR mice weighing 20-25 g and fasted overnight. […] The rest of the procedure was performed in the same manner as in the pharmacokinetic assay in rats.

[7] = In vivo pharmacokinetic assay in rats; details: male, SD, rat, in vivo
Method: as §1

[8] = Pharmacokinetic assay (crystal form) in mice; type: in vivo; details: male, ICR, mouse, plasma, oral intragastric administration 10 mg/kg
Method: as §1, with “in mice” for “in rats”, “used mice” for “used rats”, “were 9” for “were 6”, “male ICR mice” for “male SD rats”, “weighing 20-25” for “weighing 180-240”, “overnight. 9 mice were taken and orally intragastrically administered with 10 mg/kg of the compound.” for “overnight.”

[9] = listed as crystal form A of hydrochloride
[10] = intravenous injection 1 mg/kg, read-out: Vz
[11] = oral intragastric administration 10 mg/kg

SMILES: C[C@H](Cc1cnn[nH]1)OCC(=O)N1Cc2cnc(NC3Cc4ccccc4C3)nc2C1 [Free base crystal form A]
- After DVS test Whether the crystal form is changed [1]: No
- Hygroscopicity [1]: Slightly
- Vapor sorption (25° C./80% RH) [1]: 1.03%
- Risk evaluation [1]: None
- particle size [2]: less than 50 μm
- Crystal form change ([3]; FaSSIF, 1 h): No
- Crystal form change ([3]; FaSSIF, 4 h): No
- Crystal form change ([3]; FaSSIF, 24 h): No
- Crystal form change ([3]; FeSSIF, 1 h): No
- Crystal form change ([3]; FeSSIF, 4 h): No
- Crystal form change ([3]; FeSSIF, 24 h): No
- Crystal form change ([3]; H2O, 1 h): No
- Crystal form change ([3]; H2O, 4 h): No
- Crystal form change ([3]; H2O, 24 h): No
- Crystal form change ([3]; SGF, 1 h): No
- Crystal form change ([3]; SGF, 4 h): No
- Crystal form change ([3]; SGF, 24 h): No
- pH ([3]; FaSSIF, 1 h): 6.5
- pH ([3]; FaSSIF, 4 h): 6.6
- pH ([3]; FaSSIF, 24 h): 6.6
- pH ([3]; FeSSIF, 1 h): 5.1
- pH ([3]; FeSSIF, 4 h): 5.1
- pH ([3]; FeSSIF, 24 h): 5.1
- pH ([3]; H2O, 1 h): 8.4
- pH ([3]; H2O, 4 h): 8.4
- pH ([3]; H2O, 24 h): 8.6
- pH ([3]; SGF, 1 h): 1.9
- pH ([3]; SGF, 4 h): 1.9
- pH ([3]; SGF, 24 h): 2.0
- Purity/initial purity (%) (Solid stability, 1 week; 25° C./60% RH): 100.0%
- Purity (area %) (Solid stability, 1 week; 25° C./60% RH): 98.67 area %
- Crystal form change (Solid stability, 1 week; 25° C./60% RH): No
- Purity/initial purity (%) (Solid stability, 1 week; 40° C./75% RH): 100.0%
- Purity (area %) (Solid stability, 1 week; 40° C./75% RH): 98.60 area %
- Crystal form change (Solid stability, 1 week; 40° C./75% RH): No

SMILES: C[C@H](Cc1cnn[nH]1)OCC(=O)N1Cc2cnc(NC3Cc4ccccc4C3)nc2C1 [Crystal form A of fumarate]
- After DVS test Whether the crystal form is changed [1]: No
- Hygroscopicity [1]: Slightly
- Vapor sorption (25° C./80% RH) [1]: 0.60%
- DVS curve vapor sorption [1]: less than 0.60%
- Risk evaluation [1]: None
- particle size [2]: less than 50 μm
- Crystal form change ([3]; H2O, 1 h): No
- Crystal form change ([3]; H2O, 4 h): No
- Crystal form change ([3]; H2O, 24 h): No
- Crystal form change ([3]; SGF, 1 h): No
- Crystal form change ([3]; SGF, 4 h): No
- Crystal form change ([3]; SGF, 24 h): No
- pH ([3]; FaSSIF, 1 h): 4.9
- pH ([3]; FaSSIF, 4 h): 4.4
- pH ([3]; FaSSIF, 24 h): 4.2
- pH ([3]; FeSSIF, 1 h): 4.8
- pH ([3]; FeSSIF, 4 h): 4.9
- pH ([3]; FeSSIF, 24 h): 4.8
- pH ([3]; H2O, 1 h): 3.6
- pH ([3]; H2O, 4 h): 3.7
- pH ([3]; H2O, 24 h): 3.6
- pH ([3]; SGF, 1 h): 1.9
- pH ([3]; SGF, 4 h): 1.9
- pH ([3]; SGF, 24 h): 1.9
- Purity/initial purity (%) (Solid stability, 1 week; 25° C./60% RH): 100.1%
- Purity (area %) (Solid stability, 1 week; 25° C./60% RH): 99.28 area %
- Crystal form change (Solid stability, 1 week; 25° C./60% RH): No
- Purity/initial purity (%) (Solid stability, 1 week; 40° C./75% RH): 100.1%
- Purity (area %) (Solid stability, 1 week; 40° C./75% RH): 99.33 area %
- Crystal form change (Solid stability, 1 week; 40° C./75% RH): No

SMILES: C[C@H](Cc1cnn[nH]1)OCC(=O)N1Cc2cnc(NC3Cc4ccccc4C3)nc2C1 [Crystal form A of hydrochloride]
- After DVS test Whether the crystal form is changed [1]: Yes*
- After DVS test Whether the crystal form is changed [1, 9]: changed crystal form
- Hygroscopicity [1]: Moderately
- Vapor sorption (25° C./80% RH) [1]: 3.85%
- Hygroscopicity [1, 9]: had hygroscopicity
- DVS curve vapor sorption [1]: less than 3.85%
- Risk evaluation [1]: Significantly increased
- particle size [2]: less than 50 μm
- pH ([3]; FaSSIF, 1 h): 5.7
- pH ([3]; FaSSIF, 4 h): 5.5
- pH ([3]; FaSSIF, 24 h): 5.2
- pH ([3]; FeSSIF, 1 h): 4.9
- pH ([3]; FeSSIF, 4 h): 4.9
- pH ([3]; FeSSIF, 24 h): 4.9
- pH ([3]; H2O, 1 h): 2.3
- pH ([3]; H2O, 4 h): 2.2
- pH ([3]; H2O, 24 h): 2.3
- pH ([3]; SGF, 1 h): 1.8
- pH ([3]; SGF, 4 h): 1.8
- pH ([3]; SGF, 24 h): 1.9
- solubility in each system compared with that of the free base crystal form A ([3]; water, SGF, FaSSIF, FeSSIF): significantly improved
- Purity/initial purity (%) (Solid stability, 1 week; 25° C./60% RH): 99.5%
- Purity (area %) (Solid stability, 1 week; 25° C./60% RH): 96.68 area %
- Crystal form change (Solid stability, 1 week; 25° C./60% RH): No
- Purity/initial purity (%) (Solid stability, 1 week; 40° C./75% RH): 79.9%
- XRPD crystallinity (Solid stability, 1 week; 40° C./75% RH): decreased
- Purity (area %) (Solid stability, 1 week; 40° C./75% RH): 77.67 area %
- Crystal form change (Solid stability, 1 week; 40° C./75% RH): No*

- Remaining percentage of compound after 30 min of incubation (%) [4]: 41.2%
- half-life at 1.5 μM [4]: 24.1 min
- solubility ([5]; aqueous buffer, PBS, pH 7.4, room temperature overnight, read-out: Solubility PBS (pH 7.4)): 6.3 mg/mL (≈ 15.5 mM)
- solubility ([5]; fassgf or other biorelevant, FaSSGF, pH 1.6, room temperature overnight, read-out: Solubility FaSSGF (pH 1.6)): 66.5 mg/mL (≈ 164 mM)
- solubility ([5]; FeSSIF, pH 5.8, room temperature overnight, read-out: Solubility FeSSIF (pH 5.8)): 18.3 mg/mL (≈ 45.1 mM)
- AUC(0-t) ([6]; intravenous injection 1 mg/kg): 290 ng·h/mL
- clearance ([6]; intravenous injection 1 mg/kg): 57.5 mL/min/kg
- half-life ([6]; intravenous injection 1 mg/kg): 20.4 min
- Vd [6, 10]: 1.67 L/kg
- AUC(0-t) [6, 11]: 2900 ng·h/mL
- Cmax [6, 11]: 2040 ng/mL
- Tmax [6, 11]: 15 min
- half-life [6, 11]: 49.8 min
- AUC(0-t) ([7]; intravenous injection 1 mg/kg): 580 ng·h/mL
- clearance ([7]; intravenous injection 1 mg/kg): 29.3 mL/min/kg
- half-life ([7]; intravenous injection 1 mg/kg): 27 min
- Vd [7, 10]: 1.12 L/kg
- AUC(0-t) [7, 11]: 4870 ng·h/mL
- Cmax [7, 11]: 2590 ng/mL
- Tmax [7, 11]: 25.2 min
- half-life [7, 11]: 78.6 min
- AUC(0-t) [8]: 2900 ng·h/mL
- Cmax [8]: 2040 ng/mL
- Tmax [8]: 15 min
- half-life [8]: 49.8 min
SMILES: O=C(COCCc1cnn[nH]1)N1Cc2cnc(NC3Cc4ccccc4C3)nc2C1 [Control compound, reference compound]
